According to patent publication US8952024B2, “Herbicidal pyrimidone derivatives” (E I du Pont de Nemours and Company, priority 2009, dated 2015):

What was measured:
Assay in all cases: Test B pre-/postemergence plant response
Format in all cases: in vivo
[1] = system: velvetleaf (Abutilon theophrasti); conditions: for Velvetleaf plant response rating (0 to 100 scale): 62 g ai/ha, postemergence, 0 is no effect, 100 is complete control; for Plant response rating, Velvetleaf: Postemergence
Summary of the method: (§1)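 Response scores were assigned visually after 13 to 15 days in a greenhouse, comparing treated pots with controls on a 0–100 scale where 100 denotes complete control. Preemergence treatments went onto freshly seeded loam/sand soil; postemergence treatments onto plants 2 to 18 cm tall.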

[2] = system: wheat (Triticum aestivum); conditions: for Wheat plant response rating (0 to 100 scale): 62 g ai/ha, postemergence, 0 is no effect, 100 is complete control; for Plant response rating, Wheat: Postemergence
Summary of the method: as §1

[3] = system: kochia (Kochia scoparia); conditions: for Kochia plant response rating (0 to 100 scale): 62 g ai/ha, postemergence, 0 is no effect, 100 is complete control; for Plant response rating, Kochia: Postemergence
Summary of the method: as §1

[4] = system: pigweed (Amaranthus retroflexus); conditions: for Pigweed plant response rating (0 to 100 scale): 62 g ai/ha, postemergence, 0 is no effect, 100 is complete control; for Plant response rating, Pigweed: Postemergence
Summary of the method: as §1

[5] = system: woolly cupgrass (Eriochloa villosa); conditions: for Cupgrass, Woolly plant response rating (0 to 100 scale): 62 g ai/ha, postemergence, 0 is no effect, 100 is complete control; for Plant response rating, Cupgrass, Woolly: Postemergence
Summary of the method: as §1

[6] = system: downy bromegrass (Bromus tectorum); conditions: for Bromegrass, Downy plant response rating (0 to 100 scale): 62 g ai/ha, postemergence, 0 is no effect, 100 is complete control; for Plant response rating, Bromegrass, Downy: Postemergence
Summary of the method: as §1

[7] = system: lambsquarters (Chenopodium album); conditions: for Lambsquarters plant response rating (0 to 100 scale): 62 g ai/ha, postemergence, 0 is no effect, 100 is complete control; for Plant response rating, Lambsquarters: Postemergence
Summary of the method: as §1

[8] = system: green foxtail (Setaria viridis); conditions: for Foxtail, Green plant response rating (0 to 100 scale): 62 g ai/ha, postemergence, 0 is no effect, 100 is complete control; for Plant response rating, Foxtail, Green: Postemergence
Summary of the method: as §1

[9] = system: giant foxtail (Setaria faberii); conditions: for Foxtail, Giant plant response rating (0 to 100 scale): 62 g ai/ha, postemergence, 0 is no effect, 100 is complete control; for Plant response rating, Foxtail, Giant: Postemergence
Summary of the method: as §1

[10] = system: large crabgrass (Digitaria sanguinalis); conditions: for Crabgrass, Large plant response rating (0 to 100 scale): 62 g ai/ha, postemergence, 0 is no effect, 100 is complete control; for Plant response rating, Crabgrass, Large: Postemergence
Summary of the method: as §1

[11] = system: yellow nutsedge (Cyperus esculentus); conditions: for Nutsedge, Yellow plant response rating (0 to 100 scale): 62 g ai/ha, postemergence, 0 is no effect, 100 is complete control; for Plant response rating, Nutsedge, Yellow: Postemergence
Summary of the method: as §1

[12] = system: johnsongrass (Sorghum halepense); conditions: for Johnsongrass plant response rating (0 to 100 scale): 62 g ai/ha, postemergence, 0 is no effect, 100 is complete control; for Plant response rating, Johnsongrass: Postemergence
Summary of the method: as §1

[13] = system: goosegrass (Eleusine indica); conditions: for Goosegrass plant response rating (0 to 100 scale): 62 g ai/ha, postemergence, 0 is no effect, 100 is complete control; for Plant response rating, Goosegrass: Postemergence
Summary of the method: as §1

[14] = 31 g ai/ha, 0 to 100 scale (0 no effect, 100 complete control)
[15] = 125 g ai/ha, scale 0 to 100 (0 no effect, 100 complete control)
[16] = 250 g ai/ha, scale 0 to 100 (0 no effect, 100 complete control), 13 to 15 days

## CCCn1c(-c2cccc(Br)c2)ncc(C(=O)C2=C(O)CCCC2=O)c1=O [Compound 141]
[1]; 13 to 15 days
  Velvetleaf plant response rating (0 to 100 scale): 95
[1]; [14]
  Plant response rating, Velvetleaf: 75
[1]; [15]
  Plant response rating, Velvetleaf: 98
[1]; [16]
  Plant response rating, Velvetleaf: 98
[2]; 13 to 15 days
  Wheat plant response rating (0 to 100 scale): 5
[2]; [14]
  Plant response rating, Wheat: 0
[2]; [15]
  Plant response rating, Wheat: 5
[2]; [16]
  Plant response rating, Wheat: 10
[3]; 13 to 15 days
  Kochia plant response rating (0 to 100 scale): 65
[3]; [14]
  Plant response rating, Kochia: 20
[3]; [15]
  Plant response rating, Kochia: 85
[3]; [16]
  Plant response rating, Kochia: 90
[4]; 13 to 15 days
  Pigweed plant response rating (0 to 100 scale): 75
[4]; [14]
  Plant response rating, Pigweed: 60
[4]; [15]
  Plant response rating, Pigweed: 95
[4]; [16]
  Plant response rating, Pigweed: 98
[5]; 13 to 15 days
  Cupgrass, Woolly plant response rating (0 to 100 scale): 65
[5]; [14]
  Plant response rating, Cupgrass, Woolly: 65
[5]; [15]
  Plant response rating, Cupgrass, Woolly: 65
[5]; [16]
  Plant response rating, Cupgrass, Woolly: 70
[6]; 13 to 15 days
  Bromegrass, Downy plant response rating (0 to 100 scale): 5
[6]; [14]
  Plant response rating, Bromegrass, Downy: 0
[6]; [15]
  Plant response rating, Bromegrass, Downy: 10
[6]; [16]
  Plant response rating, Bromegrass, Downy: 45
[7]; 13 to 15 days
  Lambsquarters plant response rating (0 to 100 scale): 80
[7]; [14]
  Plant response rating, Lambsquarters: 80
[7]; [15]
  Plant response rating, Lambsquarters: 98
[7]; [16]
  Plant response rating, Lambsquarters: 100
[8]; 13 to 15 days
  Foxtail, Green plant response rating (0 to 100 scale): 75
[8]; [14]
  Plant response rating, Foxtail, Green: 50
[8]; [15]
  Plant response rating, Foxtail, Green: 90
[8]; [16]
  Plant response rating, Foxtail, Green: 90
[9]; 13 to 15 days
  Foxtail, Giant plant response rating (0 to 100 scale): 75
[9]; [14]
  Plant response rating, Foxtail, Giant: 75
[9]; [15]
  Plant response rating, Foxtail, Giant: 80
[9]; [16]
  Plant response rating, Foxtail, Giant: 85
[10]; 13 to 15 days
  Crabgrass, Large plant response rating (0 to 100 scale): 75
[10]; [14]
  Plant response rating, Crabgrass, Large: 70
[10]; [15]
  Plant response rating, Crabgrass, Large: 80
[10]; [16]
  Plant response rating, Crabgrass, Large: 85
[11]; 13 to 15 days
  Nutsedge, Yellow plant response rating (0 to 100 scale): 10
[11]; [14]
  Plant response rating, Nutsedge, Yellow: 0
[11]; [15]
  Plant response rating, Nutsedge, Yellow: 60
[11]; [16]
  Plant response rating, Nutsedge, Yellow: 60
[12]; 13 to 15 days
  Johnsongrass plant response rating (0 to 100 scale): 15
[12]; [14]
  Plant response rating, Johnsongrass: 15
[12]; [15]
  Plant response rating, Johnsongrass: 50
[12]; [16]
  Plant response rating, Johnsongrass: 65
[13]; 13 to 15 days
  Goosegrass plant response rating (0 to 100 scale): 75
[13]; [14]
  Plant response rating, Goosegrass: 65
[13]; [15]
  Plant response rating, Goosegrass: 75
[13]; [16]
  Plant response rating, Goosegrass: 80

## CCCCn1c(-c2cccc(Cl)c2)ncc(C(=O)C2=C(O)CCCC2=O)c1=O [Compound 146]
[1]; 13 to 15 days
  Velvetleaf plant response rating (0 to 100 scale): 85
[1]; [14]
  Plant response rating, Velvetleaf: 80
[1]; [15]
  Plant response rating, Velvetleaf: 98
[1]; [16]
  Plant response rating, Velvetleaf: 100
[2]; 13 to 15 days
  Wheat plant response rating (0 to 100 scale): 0
[2]; [14]
  Plant response rating, Wheat: 0
[2]; [15]
  Plant response rating, Wheat: 15
[2]; [16]
  Plant response rating, Wheat: 45
[3]; 13 to 15 days
  Kochia plant response rating (0 to 100 scale): 45
[3]; [14]
  Plant response rating, Kochia: 40
[3]; [15]
  Plant response rating, Kochia: 85
[3]; [16]
  Plant response rating, Kochia: 90
[4]; 13 to 15 days
  Pigweed plant response rating (0 to 100 scale): 98
[4]; [14]
  Plant response rating, Pigweed: 95
[4]; [15]
  Plant response rating, Pigweed: 100
[4]; [16]
  Plant response rating, Pigweed: 100
[5]; 13 to 15 days
  Cupgrass, Woolly plant response rating (0 to 100 scale): 65
[5]; [14]
  Plant response rating, Cupgrass, Woolly: 60
[5]; [15]
  Plant response rating, Cupgrass, Woolly: 65
[5]; [16]
  Plant response rating, Cupgrass, Woolly: 75
[6]; 13 to 15 days
  Bromegrass, Downy plant response rating (0 to 100 scale): 5
[6]; [14]
  Plant response rating, Bromegrass, Downy: 0
[6]; [15]
  Plant response rating, Bromegrass, Downy: 10
[6]; [16]
  Plant response rating, Bromegrass, Downy: 35
[7]; 13 to 15 days
  Lambsquarters plant response rating (0 to 100 scale): 98
[7]; [14]
  Plant response rating, Lambsquarters: 95
[7]; [15]
  Plant response rating, Lambsquarters: 100
[7]; [16]
  Plant response rating, Lambsquarters: 100
[8]; 13 to 15 days
  Foxtail, Green plant response rating (0 to 100 scale): 55
[8]; [14]
  Plant response rating, Foxtail, Green: 50
[8]; [15]
  Plant response rating, Foxtail, Green: 80
[8]; [16]
  Plant response rating, Foxtail, Green: 90
[9]; 13 to 15 days
  Foxtail, Giant plant response rating (0 to 100 scale): 85
[9]; [14]
  Plant response rating, Foxtail, Giant: 75
[9]; [15]
  Plant response rating, Foxtail, Giant: 95
[9]; [16]
  Plant response rating, Foxtail, Giant: 98
[10]; 13 to 15 days
  Crabgrass, Large plant response rating (0 to 100 scale): 75
[10]; [14]
  Plant response rating, Crabgrass, Large: 65
[10]; [15]
  Plant response rating, Crabgrass, Large: 85
[10]; [16]
  Plant response rating, Crabgrass, Large: 98
[11]; 13 to 15 days
  Nutsedge, Yellow plant response rating (0 to 100 scale): 10
[11]; [14]
  Plant response rating, Nutsedge, Yellow: 5
[11]; [15]
  Plant response rating, Nutsedge, Yellow: 20
[11]; [16]
  Plant response rating, Nutsedge, Yellow: 40
[12]; 13 to 15 days
  Johnsongrass plant response rating (0 to 100 scale): 45
[12]; [14]
  Plant response rating, Johnsongrass: 45
[12]; [15]
  Plant response rating, Johnsongrass: 70
[12]; [16]
  Plant response rating, Johnsongrass: 95
[13]; 13 to 15 days
  Goosegrass plant response rating (0 to 100 scale): 90
[13]; [14]
  Plant response rating, Goosegrass: 75
[13]; [15]
  Plant response rating, Goosegrass: 95
[13]; [16]
  Plant response rating, Goosegrass: 95
